Molecules are shown by their SMILES.

In the assay the test system is HEK293 cells. In words: Metabolic labeling with Alk-14, CuAAC with Cy3-azide, in-gel fluorescence (global fatty-acylation level). The assay is classed as cell-based. The following applies: Alk-14 25 μM, 31 20 μM, 24 h.

As to `CCCCCCCCCCCCSC[C@@H](N)C(=O)NCCCC[C@@H]1NC(=O)[C@H](CCC(N)=O)NC1=O` [Compound 31], the “In-gel fluorescence signal (protein fatty acylation)” value was “moderately increased the fluorescence signal”.
